Reference: patent US8013018B2, “Aminoindane derivative or salt thereof” (Astellas Pharma Inc., priority 2006, dated 2011)
Where a name gives a salt, the structure may show the parent alone.

These molecules were tested against NMDA receptor (assay: [3H] MK-801 binding test on rat brain membrane specimen). Details: read-out: Ki (NMDA receptor affinity).
Method: 1) Preparation of Specimens of Rat Meninges:
The whole brain was taken out from 30 10-week SD rats (Nippon SLC), and the cerebellum was removed from them. A 0.32 M sucrose solution was added to the part containing the cerebrum, cut in a mixer, and homogenized with a Teflon™ (trademark) homogenizer. This was centrifuged at 2800 rpm and 4° C. for 15 minutes, and the resulting supernatant was again centrifuged at 15000 g and 4° C. for 20 minutes. The pellets were suspended in 50 mM Tris-HCL (pH 7.5) containing 0.08% Triton X-100, and kept statically on ice for 30 minutes, then centrifuged at 15000 g and 4° C. for 20 minutes. The pellets were suspended in 50 mM Tris-HCl (pH 7.5) added thereto, and centrifuged at 15000 g and 4° C. for 20 minutes. 50 mM Tris-HCl (pH 7.5) was again added to the pellets, and centrifuged in the same manner as before. The pellets were suspended in 20 ml of 50 mM Tris-HCl (pH 7.5) added thereto, and homogenized with the Teflon™ (trademark) homogenizer. The membrane specimen was divided into small tubes and stored in a deep freezer (−80° C.). Before use, this was washed twice with 5 mM Tris-HCl (pH 7.5) of five times that of the membrane specimen. Its concentration was controlled at 1 mg protein/ml with 5 mM Tris-HCl (pH 7.5) added to it, and this was used for assay.
2) [^3H] MK-801 Binding Assay:
50 μl of the rat membrane specimen (1 mg protein/ml) was added to a solution of a test compound dissolved in 1 μl of DMSO.
Work on `CCC1(CC)Cc2ccccc2C1(N)c1ccccc1` (stereo not drawn) [Example 2] yielded a Ki of 0.4 µM. With `CNC1(c2ccccc2)c2ccccc2CC1(C)C` (stereo not drawn) [Example 10, N,2,2-trimethyl-1-phenylindan-1-amine hydrochloride] the Ki was 0.4 µM. `CC1(C)Cc2ccccc2C1(N)c1ccc(F)cc1` (stereo not drawn) [Example 17, 1-(4-Fluorophenyl)-2,2-dimethylindan-1-amine monofumarate] gave a Ki of 0.8 µM. In the case of `COc1ccccc1C1(N)c2ccccc2CC1(C)C` (stereo not drawn) [Example 18, 1-(2-Methoxyphenyl)-2,2-dimethylindan-1-amine hydrochloride], the Ki is reported as 0.3 µM. `CC1(C)Cc2ccccc2C1(N)c1cccc(O)c1` (stereo not drawn) [Example 21, 1-(3-Hydroxyphenyl)-2,2-dimethylindan-1-amine] was tested, and the Ki was 0.1 µM. With `CC1(C)Cc2ccccc2C1(C)N` (stereo not drawn) [Example 23, 1,2,2-Trimethylindan-1-amine hydrochloride] the Ki was 0.9 µM. Molecule `Cc1ccc2c(c1)C(C)(N)C(C)(C)C2` (stereo not drawn) [Example 36, 1,2,2,6-Tetramethylindan-1-amine hydrochloride] has a Ki of 0.4 µM. `COc1ccc2c(c1)C(C)(N)C(C)(C)C2` (stereo not drawn) [Example 38, 6-Methoxy-1,2,2-trimethylindan-1-amine hydrochloride] showed a Ki of 0.3 µM. `CC1(C)Cc2ccc(F)cc2C1(C)N` (stereo not drawn) [Example 41, 6-Fluoro-1,2,2-trimethylindan-1-amine hydrochloride] showed a Ki of 0.8 µM. With `CC1(C)Cc2ccc(Br)cc2C1(C)N` (stereo not drawn) [Example 42, 6-Bromo-1,2,2,-trimethylindan-1-amine hydrochloride] the Ki was 0.3 µM. `CC1(C)Cc2ccc(C(F)(F)F)cc2C1(C)N` (stereo not drawn) [Example 43, 6-Trifluoromethyl-1,2,2-trimethylindan-1-amine hydrochloride] was tested, and the Ki was 0.3 µM. Work on `CC1(C)Cc2ccc(C#N)cc2C1(C)N` (stereo not drawn) [Example 44, 6-Cyano-1,2,2-trimethylindan-1-amine hydrochloride] yielded a Ki of 0.6 µM. With `CC1(C)Cc2cccc(F)c2C1(C)N` (stereo not drawn) [Example 48, 7 Fluoro-1,2,2-trimethylindan-1-amine hydrochloride] the Ki was 0.6 µM. In the case of `CCC1(N)c2cccc(C)c2CC1(C)C` (stereo not drawn) [Example 59], the Ki is reported as 0.9 µM. Molecule `CCCCC1(N)c2ccccc2CC1(C)C` (stereo not drawn) [Example 61] has a Ki of 0.5 µM.
